Several values for one entry are separate records, joined by “and”; a condition that tells them apart may be missing. Equal values may be shown once.
Assays:
[1] = C14 hydroxyl replaced by electron withdrawing group; background statement; cited from earlier work
[2] = test system: BxPC-3 pancreatic cancer cells; assay: Inhibition of triptolide-AS1411 conjugate on the growth of pancreatic cancer cells in vitro (absorbance, MTT); assay type: cell-based, human; details: for Absorbance (24 h) / Absorbance (48 h): replicate wells
Method: 5 pancreatic cancer cell lines (MiaPaCa-2, PANC-1, BxPC-3, SW1990 and ASPC-1) used in the experiments were all purchased from Shanghai Cell Bank.
(§1) Fetal bovine serum and two antibiotics were added into the above media so as to form a final culture medium with a final content of 10% and 1%. Cells were incubated in an incubator at 37° C. and with 5% CO2.
Pancreatic cancer cells (MiaPaCa-2, PANC-1, BxPC-3, SW1990 and ASPC-1) were uniformly seeded into a 96-well plate with a low density (1×10^3˜1×10^4, depending on the specific cell lines, and the conditions were referred to Shanghai Cell Bank). After placed in incubator for adhering overnight, the used medium was replaced by a serum free medium containing drug. […] The cells were then incubated in the incubator at 37° C. and with 5% CO2. Cell activities were measured by MTT. The operation was performed for 4 times.

[3] = design: species or system female nude mice; details: female, nude, mouse, in vivo
Excerpt: BxPC-3 cells in logarithmic growth phase were used.
Samples A and B in 2.2.2 were used.

[4] = background statement; cited from earlier work
cancer cells = details: background statement; cited from earlier work
[5] = test system: acute lymphoblastic leukemia T-cells (CCRF-CEM); assay: Inhibition of triptolide-SGC8C conjugate on the growth of cancer cells in vitro (absorbance, MTT); assay type: cell-based; details: replicates, listed as TP
Method: Cell lines: acute lymphoblastic leukemia T-cells (CCRF-CEM) and hepatocyte (L-02).
as §1, with “CO2. Growth conditions of the cells were constantly observed and cell counting was performed, and all the experiments were carried out on cells in logarithmic growth phase.” for “CO2.”
Study on anti-cancer activity: acute lymphoblastic leukemia T-cells (CCRF-CEM) and liver cells (L-02) were uniformly seeded into a 96-well plate in a low density (1×10^3˜1×10^4, depending on the specific cell lines) and were placed in an incubator overnight for adhering, the used medium was replaced by a serum free medium containing drug. […] The cells were then cultured in the incubator at 37° C. and with 5% CO2. Cell activities were measured by MTT. The operations were repeated for 3 times.

Row | SMILES | cytotoxicity compared with TP [1] | Absorbance (24 h) ([2]; 25 nM) | Absorbance (48 h) ([2]; 25 nM) | Absorbance (24 h) ([2]; 50 nM) | Absorbance (48 h) ([2]; 50 nM) | Absorbance (24 h) ([2]; 100 nM) | Absorbance (48 h) ([2]; 100 nM) | Absorbance (24 h) ([2]; 200 nM) | Absorbance (48 h) ([2]; 200 nM) | effect on proliferation of pancreatic cancer cells ([2]; compared with blank references, concentration range 50 nM-200 nM, time and dose dependent) | time after administration at which drug concentration in blood reaches a maximum [3] [h] | solubility in water [4] | concentration that effectively inhibits the growth of the cancer cells (cancer cells) [ng/mL] | Absorbance (CCRF-CEM) ([5]; 25 nM) | Absorbance (CCRF-CEM) ([5]; 50 nM) | Absorbance (CCRF-CEM) ([5]; 100 nM) | Absorbance (CCRF-CEM) ([5]; 200 nM)
1 | CC(C)[C@]12O[C@H]1[C@@H]1O[C@]13[C@]1(O[C@H]1C[C@H]1C4=C(CC[C@@]13C)C(=O)OC4)[C@@H]2F [Compound M-1] | greater than TP |  |  |  |  |  |  |  |  |  |  |  |  |  |  |  | 
2 | CC(C)[C@]12O[C@H]1[C@@H]1O[C@]13[C@]1(O[C@H]1C[C@H]1C4=C(CC[C@@]13C)C(=O)OC4)[C@H]2F [Compound M-2] | greater than TP |  |  |  |  |  |  |  |  |  |  |  |  |  |  |  | 
3 | CC(C)[C@]12O[C@H]1[C@@H]1O[C@]13[C@]1(O[C@H]1C[C@H]1C4=C(CC[C@@]13C)C(=O)OC4)[C@@H]2O [Triptolide] |  | 0.745 and 0.764 and 0.718 and 0.690 | 0.296 and 0.322 (2×) and 0.317 | 0.436 and 0.430 and 0.454 and 0.424 | 0.219 and 0.223 and 0.231 and 0.220 | 0.393 and 0.397 and 0.403 and 0.364 | 0.211 and 0.206 and 0.223 and 0.212 | 0.365 and 0.366 and 0.402 and 0.399 | 0.200 and 0.218 and 0.222 and 0.213 | significantly inhibit | 0.5 | not soluble in water | 2 to 10 | 0.7555 and 0.7582 and 0.755 | 0.5502 and 0.5441 and 0.5447 | 0.2608 and 0.2717 and 0.2802 | 0.1902 (2×) and 0.18
